Data as given in ChEMBL document CHEMBL4837183, “Antiproliferative Bufadienolides from the Bulbs of Drimia altissima” (2021).

Assays:
Assay type in all cases: functional
KM12 = experiment: Growth inhibition of human KM12 cells measured after 48 hrs by SRB assay
SK-OV-3 = experiment: Growth inhibition of human SK-OV-3 cells measured after 48 hrs by SRB assay
UACC-257 = experiment: Growth inhibition of human UACC-257 cells measured after 48 hrs by SRB assay
MDA-MB-435 = experiment: Growth inhibition of human MDA-MB-435 cells measured after 48 hrs by SRB assay
IGROV-1 = experiment: Growth inhibition of human IGROV-1 cells measured after 48 hrs by SRB assay
SF-539 = experiment: Growth inhibition of human SF-539 cells measured after 48 hrs by SRB assay
MDA-MB-231 = experiment: Growth inhibition of human MDA-MB-231 cells measured after 48 hrs by SRB assay
UO-31 = experiment: Growth inhibition of human UO-31 cells measured after 48 hrs by SRB assay
HOP-62 = experiment: Growth inhibition of human HOP-62 cells measured after 48 hrs by SRB assay
K562 = experiment: Growth inhibition of human K562 cells measured after 48 hrs by SRB assay
TK-10 = experiment: Growth inhibition of human TK-10 cells measured after 48 hrs by SRB assay
NCI-H322M = experiment: Growth inhibition of human NCI-H322M cells measured after 48 hrs by SRB assay
HL-60 = experiment: Growth inhibition of human HL-60 cells measured after 48 hrs by SRB assay
786-0 = experiment: Growth inhibition of human 786-0 cells measured after 48 hrs by SRB assay
UACC-62 = experiment: Growth inhibition of human UACC-62 cells measured after 48 hrs by SRB assay
HOP-92 = experiment: Growth inhibition of human HOP-92 cells measured after 48 hrs by SRB assay
PC-3 = experiment: Growth inhibition of human PC-3 cells measured after 48 hrs by SRB assay
CAKI-1 = experiment: Growth inhibition of human CAKI-1 cells measured after 48 hrs by SRB assay
DU-145 = experiment: Growth inhibition of human DU-145 cells measured after 48 hrs by SRB assay
SK-MEL-2 = experiment: Growth inhibition of human SK-MEL-2 cells measured after 48 hrs by SRB assay
M14 = experiment: Growth inhibition of human M14 cells measured after 48 hrs by SRB assay
MDA-MB-468 = experiment: Growth inhibition of human MDA-MB-468 cells measured after 48 hrs by SRB assay
MCF7 = experiment: Growth inhibition of human MCF7 cells measured after 48 hrs by SRB assay
HCT-15 = experiment: Growth inhibition of human HCT-15 cells measured after 48 hrs by SRB assay
OVCAR-3 = experiment: Growth inhibition of human OVCAR-3 cells measured after 48 hrs by SRB assay
SNB-75 = experiment: Growth inhibition of human SNB-75 cells measured after 48 hrs by SRB assay
NCI-H460 = experiment: Growth inhibition of human NCI-H460 cells measured after 48 hrs by SRB assay
SR = experiment: Growth inhibition of human SR cells measured after 48 hrs by SRB assay
T47D = experiment: Growth inhibition of human T47D cells measured after 48 hrs by SRB assay
SF-295 = experiment: Growth inhibition of human SF-295 cells measured after 48 hrs by SRB assay
OVCAR-5 = experiment: Growth inhibition of human OVCAR-5 cells measured after 48 hrs by SRB assay
NCI-H226 = experiment: Growth inhibition of human NCI-H226 cells measured after 48 hrs by SRB assay
Malme-3M = experiment: Growth inhibition of human Malme-3M cells measured after 48 hrs by SRB assay
NCI-H23 = experiment: Growth inhibition of human NCI-H23 cells measured after 48 hrs by SRB assay
BT-549 = experiment: Growth inhibition of human BT-549 cells measured after 48 hrs by SRB assay
CCRF-CEM = experiment: Growth inhibition of human CCRF-CEM cells measured after 48 hrs by SRB assay
HCT-116 = experiment: Growth inhibition of human HCT-116 cells measured after 48 hrs by SRB assay
SK-MEL-5 = experiment: Growth inhibition of human SK-MEL-5 cells measured after 48 hrs by SRB assay
NCI-H522 = experiment: Growth inhibition of human NCI-H522 cells measured after 48 hrs by SRB assay
A549 = experiment: Growth inhibition of human A549 cells measured after 48 hrs by SRB assay
HCC 2998 = experiment: Growth inhibition of human HCC 2998 cells measured after 48 hrs by SRB assay
SW-620 = experiment: Growth inhibition of human SW-620 cells measured after 48 hrs by SRB assay
OVCAR-8 = experiment: Growth inhibition of human OVCAR-8 cells measured after 48 hrs by SRB assay
SNB-19 = experiment: Growth inhibition of human SNB-19 cells measured after 48 hrs by SRB assay
A498 = experiment: Growth inhibition of human A498 cells measured after 48 hrs by SRB assay
Hs-578T = experiment: Growth inhibition of human Hs-578T cells measured after 48 hrs by SRB assay
RPMI-8226 = experiment: Growth inhibition of human RPMI-8226 cells measured after 48 hrs by SRB assay
COLO 205 = experiment: Growth inhibition of human COLO 205 cells measured after 48 hrs by SRB assay
ACHN = experiment: Growth inhibition of human ACHN cells measured after 48 hrs by SRB assay
RXF 393 = experiment: Growth inhibition of human RXF 393 cells measured after 48 hrs by SRB assay
SN12C = experiment: Growth inhibition of human SN12C cells measured after 48 hrs by SRB assay
NCI/ADR-RES = experiment: Growth inhibition of human NCI/ADR-RES cells measured after 48 hrs by SRB assay
SK-MEL-28 = experiment: Growth inhibition of human SK-MEL-28 cells measured after 48 hrs by SRB assay
SF-268 = experiment: Growth inhibition of human SF-268 cells measured after 48 hrs by SRB assay
MOLT-4 = experiment: Growth inhibition of human MOLT-4 cells measured after 48 hrs by SRB assay
LOX IMVI = experiment: Growth inhibition of human LOX IMVI cells measured after 48 hrs by SRB assay

`CCO[C@H]1C=C2CC[C@@H]3[C@H]([C@@H](O)C[C@]4(C)[C@@H](c5ccc(=O)oc5)CC[C@]34O)[C@@]2(C)CC1` gave a GI50 (KM12) of 2200 nM, a GI50 (SK-OV-3) of 1910 nM and a GI50 (UACC-257) of 1890 nM. For the same compound, the GI50 (MDA-MB-435) was 1400 nM, the GI50 (IGROV-1) was 1840 nM and the GI50 (SF-539) was 968 nM. It also gave a GI50 (MDA-MB-231) of over 5750 nM, a GI50 (UO-31) of 940 nM and a GI50 (HOP-62) of 974 nM. It also gave a GI50 (K562) of 1270 nM, a GI50 (TK-10) of 1300 nM and a GI50 (NCI-H322M) of 1400 nM. For the same compound, the GI50 (HL-60) was 649 nM, the GI50 (786-0) was 927 nM and the GI50 (UACC-62) was 1270 nM. For the same compound, the GI50 (HOP-92) was 757 nM, the GI50 (PC-3) was 839 nM and the GI50 (CAKI-1) was 1150 nM. It also gave a GI50 (DU-145) of 423 nM, a GI50 (SK-MEL-2) of 1200 nM and a GI50 (M14) of 1930 nM. The GI50 (MDA-MB-468) was over 550 nM, the GI50 (MCF7) was 1520 nM and the GI50 (HCT-15) was 1800 nM. It also gave a GI50 (OVCAR-3) of 618 nM, a GI50 (SNB-75) of 1060 nM and a GI50 (NCI-H460) of 247 nM. The GI50 (SR) was 418 nM, the GI50 (T47D) was 2170 nM and the GI50 (SF-295) was 1200 nM. For the same compound, the GI50 (OVCAR-5) was 2030 nM, the GI50 (NCI-H226) was 1770 nM and the GI50 (Malme-3M) was 1800 nM. The GI50 (NCI-H23) was 1360 nM, the GI50 (BT-549) was 946 nM and the GI50 (CCRF-CEM) was 233 nM. It also gave a GI50 (HCT-116) of 716 nM, a GI50 (SK-MEL-5) of 1360 nM and a GI50 (NCI-H522) of 252 nM. It also gave a GI50 (A549) of 434 nM, a GI50 (HCC 2998) of 4510 nM and a GI50 (SW-620) of 911 nM. For the same compound, the GI50 (OVCAR-8) was 1670 nM, the GI50 (SNB-19) was 2350 nM and the GI50 (A498) was 460 nM. For the same compound, the GI50 (Hs-578T) was 369 nM, the GI50 (RPMI-8226) was 1450 nM and the GI50 (COLO 205) was 4220 nM. It also gave a GI50 (ACHN) of 251 nM, a GI50 (RXF 393) of 709 nM and a GI50 (SN12C) of 905 nM. It also gave a GI50 (NCI/ADR-RES) of 1610 nM, a GI50 (SK-MEL-28) of 1660 nM and a GI50 (SF-268) of 471 nM. The GI50 (MOLT-4) was 189 nM and the GI50 (LOX IMVI) was 1800 nM.

`C[C@]12CC[C@@H](O)C=C1CC[C@@H]1[C@@H]2[C@@H](O)C[C@]2(C)[C@@H](c3ccc(=O)oc3)CC[C@]12O` gave a GI50 (KM12) of 5000 nM, a GI50 (SK-OV-3) of 4240 nM and a GI50 (UACC-257) of 3450 nM. The GI50 (MDA-MB-435) was 3350 nM, the GI50 (IGROV-1) was 3690 nM and the GI50 (SF-539) was 1490 nM. The GI50 (MDA-MB-231) was 8500 nM, the GI50 (UO-31) was 2150 nM and the GI50 (HOP-62) was 1550 nM. It also gave a GI50 (K562) of 644 nM, a GI50 (TK-10) of 2980 nM and a GI50 (NCI-H322M) of 2880 nM. For the same compound, the GI50 (HL-60) was 273 nM, the GI50 (786-0) was 998 nM and the GI50 (UACC-62) was 3310 nM. The GI50 (HOP-92) was 2100 nM, the GI50 (PC-3) was 1880 nM and the GI50 (CAKI-1) was 2470 nM. For the same compound, the GI50 (DU-145) was 760 nM, the GI50 (SK-MEL-2) was 3060 nM and the GI50 (M14) was 3380 nM. The GI50 (MDA-MB-468) was 10200 nM, the GI50 (MCF7) was 3530 nM and the GI50 (HCT-15) was 4110 nM. It also gave a GI50 (OVCAR-3) of 739 nM, a GI50 (SNB-75) of 2170 nM and a GI50 (NCI-H460) of 573 nM. It also gave a GI50 (SR) of 189 nM, a GI50 (T47D) of 4710 nM and a GI50 (SF-295) of 1750 nM. The GI50 (OVCAR-5) was 2840 nM, the GI50 (NCI-H226) was 7560 nM and the GI50 (Malme-3M) was 4350 nM. It also gave a GI50 (NCI-H23) of 2230 nM, a GI50 (BT-549) of 658 nM and a GI50 (CCRF-CEM) of 502 nM. It also gave a GI50 (HCT-116) of 532 nM, a GI50 (SK-MEL-5) of 3030 nM and a GI50 (NCI-H522) of 639 nM. It also gave a GI50 (A549) of 649 nM, a GI50 (HCC 2998) of 7850 nM and a GI50 (SW-620) of 1690 nM. The GI50 (OVCAR-8) was 2110 nM, the GI50 (SNB-19) was 4970 nM and the GI50 (A498) was 1770 nM. For the same compound, the GI50 (Hs-578T) was 831 nM, the GI50 (RPMI-8226) was 2540 nM and the GI50 (COLO 205) was 6050 nM. It also gave a GI50 (ACHN) of 475 nM, a GI50 (RXF 393) of 412 nM and a GI50 (SN12C) of 1070 nM. The GI50 (NCI/ADR-RES) was 2230 nM, the GI50 (SK-MEL-28) was 3470 nM and the GI50 (SF-268) was 656 nM. The GI50 (MOLT-4) was 303 nM and the GI50 (LOX IMVI) was 3690 nM.
